Reference: patent US10836763B2, “5 to 7 membered heterocyclic amides as JAK inhibitors” (priority 2018, dated 2020)
Read-outs that look alike come from different tables or passages of the source.

Experiments:
Format in all cases: cell-based
[1] = tested on: GM-CSF stimulated STAT5 phosphorylation in CD14+ monocytes; experiment: Cellular JAK potency assay: inhibition of GM-CSF-induced pSTAT5; conditions: Homo sapiens, Monocyte, 0.25 h, read-out: pIC50, inhibition of GM-CSF-induced pSTAT5 (converted)
Experimental: Assay 15: Cellular JAK Potency Assay: Inhibition of GM-CSF-Induced pSTAT5
The potency of test compounds for inhibition of granulocyte-macrophage colony-stimulating factor (GM-CSF) stimulated STAT5 phosphorylation was measured in CD14-positive (CD14+) monocytes derived from human whole blood (Stanford Blood Center) using flow cytometry. Because GM-CSF signals through JAK, this assay provides a measure of JAK cellular potency.
Monocytes were identified using a fluorescein isothiocyanate (FITC) conjugated anti-CD14 antibody (Clone RM052, Beckman Coulter), and an Alexa Fluor 647 conjugated anti-pSTAT5 antibody (pY694, BD Biosciences) was used to detect STAT5 phosphorylation.
Human peripheral blood mononuclear cells (PBMC) were isolated from human whole blood of healthy donors using a ficoll gradient. […] Cells were washed twice with FACS buffer, and then re-suspended in 1:10 […] Alexa Fluor 647:FACS buffer (100 μL) for 30 min at RT in the dark, washed twice in FACS buffer, and analyzed using a MACSQuant flow cytometer (Miltenyi).
To determine the inhibitory potency of the test compound, the median fluorescent intensity (MFI) of pSTAT5 was measured in CD14+ monocytes. IC50 values were determined from analysis of the inhibition curves of MFI vs compound concentration. Data are expressed as pIC50 (negative decadic logarithm IC50) values.

[2] = tested on: IL-12 stimulated STAT4 phosphorylation in CD3+ T cells; experiment: Cellular JAK potency assay: inhibition of IL-12-induced pSTAT4; conditions: Homo sapiens, T-cell, 0.5 h, read-out: pIC50, inhibition of IL-12-induced pSTAT4 (converted)
Experimental: Assay 16: Cellular JAK Potency Assay: Inhibition of IL-12-Induced pSTAT4
The potency of test compounds for inhibition of interleukin-12 (IL-12) stimulated STAT4 phosphorylation was measured in CD3-positive (CD3+) T cells derived from human whole blood (Stanford Blood Center) using flow cytometry. Because IL-12 signals through JAK, this assay provides a measure of JAK cellular potency.
CD3+ T cells were identified using a phycoerythrin (PE) conjugated anti-CD3 antibody (clone UCHT1, BD Biosciences), and an Alexa Fluor 647 conjugated anti-pSTAT4 antibody (clone 38/p-Stat4, BD Biosciences) was used to detect STAT4 phosphorylation.
Human peripheral blood mononuclear cells (PBMC) were isolated from human whole blood of healthy donors using a ficoll gradient. […] After incubation, cells were washed twice in FACS buffer before being analyzed using a MACSQuant flow cytometer (Miltenyi). To determine the inhibitory potency of the test compound, the median fluorescent intensity (MFI) of pSTAT4 was measured in CD3+ T cells. IC50 values were determined from analysis of the inhibition curves of MFI vs compound concentration. Data are expressed as pIC50 (negative decadic logarithm IC50) values.

[3] = tested on: IFNγ stimulated STAT1 phosphorylation in CD14+ monocytes; experiment: Cellular JAK potency assay: inhibition of IFNγ-induced pSTAT1; conditions: Homo sapiens, Monocyte, 0.5 h, read-out: pIC50, inhibition of IFNγ-induced pSTAT1 (converted)
Description: Data are expressed as pIC50 (negative decadic logarithm IC50) values.

CCc1cc(O)ccc1-c1ccc2c(-c3nc4c([nH]3)CN(C(C)C)[C@H](C(=O)N3CCCN(C)CC3)C4)n[nH]c2c1 [Compound 4, (S)-(2-(6-(2-ethyl-4-hydroxyphenyl)-1H-indazol-3-yl)-5-isopropyl-4,5,6,7-tetrahydro-3H-imidazo[4,5-c]pyridin-6-yl)(4-methyl-1,4-diazepan-1-yl)methanone]
IC50 [1]: 200 nM
IC50 [2]: 1000 nM
IC50 [3]: 50.1 nM

CCCN1Cc2[nH]c(-c3n[nH]c4cc(-c5ccc(O)cc5CC)ccc34)nc2C[C@H]1C(=O)N1CCN(CCO)CC1 [Compound 1, (S)-(2-(6-(2-ethyl-4-hydroxyphenyl)-1H-indazol-3-yl)-5-propyl-4,5,6,7-tetrahydro-3H-imidazo[4,5-c]pyridin-6-yl)(4-(2-hydroxyethyl)piperazin-1-yl)methanone]
IC50 ([1]; CD14+ monocytes, GM-CSF 0.3 ng/mL, 15 min, flow cytometry): 200 nM
IC50 ([2]; CD3+ T cells, IL-12 10 ng/mL, 30 min, flow cytometry): 631 nM
IC50 ([3]; CD14+ monocytes, IFNγ 0.6 ng/mL, 30 min, flow cytometry): 31.6 nM
